# Laboratory results reported in PubChem BioAssay AID588719 (Southern Research Specialized Biocontainment Screening …, 2011).
# Test system: Vero 76 cells viability, cytotoxicity counter-screen
# Test: Vero 76 cell cytotoxicity, dose response, cytotoxicity control for VEEV inhibitor project (AID 588719)
structure (smiles),measurement,value
COc1cc(/C=C/C(=O)/C=C(O)/C=C/c2ccc(O)c(OC)c2)ccc1O,CC50,19.9 µM
